What all share (assay type): binding
The target of test [1] is T1, hMcl-1 (Homo sapiens, UniProt Q07820).
T1 construct: His tag (N); made in house; host or cells: E. coli BL21 (DE3) gold pLysS
Nature of the test: Isothermal titration calorimetry. As for the experimental part: Isothermal titration calorimetry measurements were performed using an Affinity ITC autosampler from TA Instruments (New Castle, DE). The titrations were performed in a direct fashion by titrating the ligand solution into the protein. All the measurements were performed at 25 °C dissolving the agents in 50 mM phosphate at pH 7.5, 150 mM NaCl, and a final DMSO concentration of 1%. To test compound 12, the syringe was filled with a 2 mM solution of compound 12, and 20 injections of 5 μL each were performed into the cell containing a 100 μM solution of the protein. The injections were made at 200 s intervals with a stirring speed of 75 rpm. To test compound 50, the syringe was filled with a 500 μM solution of compound 50, and 20 injections of 5 μL each were performed into the cell containing a 50 μM solution of the protein. The injections were made at 200 s intervals with a stirring speed of 75 rpm. All the solutions were kept in the autosampler at 4 °C. The analysis of the thermodynamics signatures and for dissociation constant determination was performed by NanoAnalyze software (TA Instruments, New Castle, DE) and subsequently exported into Microsoft Excel.

In test [2] the target is T1, hMcl-1. Nature of the test: 1D 1H NMR aliphatic region chemical shift perturbation / titration. The settings on record: for CSP1 (Table S4) / CSP1 (Table S3): total shift of the two peaks overlapping at -0.616 ppm. The text has this:
(§1) Perturbations observed by ligand binding can be measured and qualitatively used to roughly rank order compound binding, or compound mixtures in this case, in the initial screening campaign (Figure 2). As a control, we used a potent hMcl-1 binding ligand A1210477[37] (Figure 2A).
(§2) NMR spectra were acquired on a Bruker Avance III 700 MHz spectrometer equipped with a TCI cryoprobe. All NMR data were processed and analyzed using TopSpin 4.1.0 (Bruker, Billerica, MA). For the mixture screening, each of the 96 mixtures was dissolved into a 5 mm NMR tube to a final concentration of 2 mM in the presence of 20 μM hMcl-1 in a buffer containing 40 mM Tris pH = 7.5, 150 mM NaCl, and 1 mM DTT. For each mixture, 1D ^1H-aliph experiments were acquired. For ranking purposes, a total chemical shift perturbation generated by each mixture to the five peaks around 0 ppm in the 1D ^1H-aliph spectra of hMcl-1 was considered (Figure 4). 2D-[^13C,^1H]-HSQC experiments were acquired with 20 μM protein using 32 scans with 2048 and 256 complex data points in the ^1H and ^13C dimensions, respectively, at 298 K.

A further test concerns the target T2, 13Cε-Met-labeled hMcl-1 (Homo sapiens, UniProt Q07820).
T2 construct: His tag (N); made in house; host or cells: E. coli BL21 (DE3) gold pLysS
The test is described as follows: 2D [13C,1H] correlation spectra with 13Cε-Met-labeled hMcl-1.
Source text: To further corroborate the possible binding location and pose of the agent, we collected NMR experiments with a selectively ^13C^ε-Met-labeled hMcl-1.[1] In the sequence of hMcl-1, there are 4 Met residues, where two located outside the biding pocket, namely, Met 170 and Met 199, while two Met residues are directly present in the BH3 binding pocket, namely, Met 231 and Met 250 (Figure 8). […] Smaller yet still relatively large perturbations were also observed in the resonances of Met 250, located also across the indole in our model but not as directly juxtaposed as Met 231 with our ligand (Figure 8). […] This piece of data supports the location of the binding of our agent and possibly also corroborates its predicted binding pose.
as §2, with “2D-[^13C,^1H]-HSQC experiments were acquired with 20 μM protein using 32 scans with 2048 and 256 complex data points in the ^1H and ^13C dimensions, respectively, at 298 K.” left out

Test [3] has as its target T1, hMcl-1. The test is described as follows: DELFIA displacement assay, biotinylated BH3 peptide from hMcl-1. The settings on record: for IC50: hMcl-1 16 nM, room temperature. The method, then: as §1
(§3) Each well of 96-well streptavidin-coated plates (PerkinElmer) was incubated with 100 μL of a 600 ng/mL biotinylated-BH3 peptide of sequence biotin-amino-hexanoic acid-[…]-NH2 for 2 h and washed 3 times with a wash solution (PerkinElmer). Subsequently, a mixture containing 11 μL of protein and a serial dilution of the test compounds as well as 89 μL of an Eu-N1-labeled anti-6x-His antibody (PerkinElmer) was added to each well and incubated for 2 h. Plates were then washed 3 times, and 200 μL of enhancement solution (PerkinElmer) was added to each well. After a 10 min incubation, fluorescence measurements were taken with a Victor X5 microplate reader with the excitation and emission wavelengths of 340 and 615, respectively. All the incubations were performed at room temperature. The final protein concentrations used for hBfl-1 and hMcl-1 were 15 and 16 nM, respectively and the final anti-6x-His antibody used was 22.2 ng/well. Fluorescence readings were normalized to those of 1% DMSO-treated wells and reported as % inhibition. Prism 9 (GraphPad) was used to calculate IC50 values.

Another test concerns the target T3, hBfl-1 (Homo sapiens, UniProt Q16548).
T3 sequence (Q16548 1-175): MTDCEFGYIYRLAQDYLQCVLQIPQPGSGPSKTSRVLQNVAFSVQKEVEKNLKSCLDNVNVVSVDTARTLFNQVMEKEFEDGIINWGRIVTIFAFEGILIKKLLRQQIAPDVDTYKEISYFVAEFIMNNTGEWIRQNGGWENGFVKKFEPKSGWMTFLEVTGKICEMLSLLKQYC
The test is described as follows: DELFIA displacement assay, hBfl-1. The settings on record: hBfl-1 15 nM. As for the experimental part: as §3

[4] abbreviates: 25 °C, pH 7.5, 1% DMSO, read-out: Kd by isothermal titration calorimetry.
The mark [5] stands for this setting: supplementary CSV, values match ITC, read-out: Kd (uM) (n=2).

By IC50 is commonly meant the concentration that inhibits the measured activity by half.

Structures are written as SMILES. Several values for one entry are separate records, joined by “and”; a condition that tells them apart may be missing. Equal entries are not always repeated. Where two headings read alike, the source gives them in different places. Some results are limits rather than exact numbers.

T1 sequence (Q07820 172-323): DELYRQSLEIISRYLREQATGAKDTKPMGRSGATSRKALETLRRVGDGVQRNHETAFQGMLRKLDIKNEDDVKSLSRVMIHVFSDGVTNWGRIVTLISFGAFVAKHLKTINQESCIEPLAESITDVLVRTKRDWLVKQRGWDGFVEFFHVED
T2 sequence (Q07820 172-323): as above

On to `COc1cc(C)c(C(C)C)cc1S(=O)(=O)NC(CC(=O)O)C(=O)N1C(C(=O)NC(Cc2c[nH]c3ccccc23)C(N)=O)CC2CCCCC21` [Compound 50, (3R)-4-((2S)-2-(((S)-1-Amino-3-(1H-indol-3-yl)-1-oxopropan-2-yl)carbamoyl)octahydro-1H-indol-1-yl)-3-((5-isopropyl-2-methoxy-4-methylphenyl)sulfonamido)-4-oxobutanoic Acid], for which the “ΔH, isothermal titration calorimetry” value at hMcl-1 [1] (25 °C) is -10 kcal/mol. For the same compound, the Kd on hMcl-1 [1] (setting [4]) is ~2 µM and 1.71 µM; on hMcl-1 [1] (setting [5]), 1.71 ± 0.3 µM. This compound came in with an LE at hMcl-1 [1] (from ITC Kd) of around 0.16. Besides, the “CSP2 (Table S4)” value at hMcl-1 [2] (shift of the peak at -0.08 ppm, 1D-1H-aliphatic spectrum) was “+ (0.01 ppm < CSP < 0.05 ppm)”. The “CSP1 (Table S4)” value at hMcl-1 [2] is given as “+++ (0.1 ppm < CSP < 0.13 ppm)”. In addition, the koff at 13Cε-Met-labeled hMcl-1 (20 μM 13Cε-Met hMcl-1, read-out: koff, estimated upper limit from Met 231 chemical shift differences (slow exchange)) is below 519 s⁻¹. Besides, the “dissociation constant corresponding to off-rate” value on 13Cε-Met-labeled hMcl-1 (assuming diffusion limited on rate of 10^9 M^–1 s^–1) was “low micromolar”. Also, the IC50 on hMcl-1 [3] (read-out: IC50, displacement of biotinylated-BIM peptide from hMcl-1 (DELFIA)) amounted to 7500 nM. Also, at hBfl-1, the “activity against hBfl-1 in DELFIA displacement assay” value was “inactive”.

In the case of `COc1cc(C)c(C(C)C)cc1S(=O)(=O)N[C@H](CC(=O)O)C(=O)N[C@@H](CC1CCCCC1)C(N)=O` [Compound 13], the “CSP1 (Table S3)” value on hMcl-1 [2] (listed as Compound (13)) was “+ (0.01 ppm < CSP < 0.05 ppm)”.

For `COc1cc(C)c(C(C)C)cc1S(=O)(=O)N[C@H](CCC(=O)O)C(=O)N[C@@H](CC1CCCCC1)C(N)=O` [Compound 15], the “CSP1 (Table S3)” value on hMcl-1 [2] is given as “+ (0.01 ppm < CSP < 0.05 ppm)”.

Regarding `COc1ccc2[nH]cc(CC(NC(=O)C3CC4CCCCC4N3C(=O)C(CC(=O)O)NS(=O)(=O)c3cc(C(C)C)c(C)cc3OC)C(N)=O)c2c1` (stereo not shown) [Compound 59], the Kd at hMcl-1 [1] (setting [4]) came out at 4.62 ± 0.37 µM; on hMcl-1 [1] (setting [5]), 4.62 ± 0.4 µM.

As for `COc1ccc(C(C)C)cc1S(=O)(=O)NC(CC(=O)O)C(=O)N1C(C(=O)NC(Cc2c[nH]c3ccccc23)C(N)=O)CC2CCCCC21` (stereo not shown) [Compound 60], the Kd on hMcl-1 [1] (setting [4]) amounted to 2.84 ± 0.67 µM; on hMcl-1 [1] (setting [5]), 2.84 ± 0.7 µM.

`Cc1nn(C)c(COc2ccc(N3CCN(S(=O)(=O)N(C)C)CC3)cc2)c1-c1cccc2c(CCCOc3cccc4ccccc34)c(C(=O)O)n(CCN3CCOCC3)c12` [Compound A1210477]: the LE on hMcl-1 [3] (from DELFIA IC50) was around 0.17. Besides, at hMcl-1 [3] (read-out: IC50, displacement of biotinylated BH3 peptide from hMcl-1 (DELFIA)), the IC50 was 14 nM.

Take `COc1cc(C)c(C(C)C)cc1S(=O)(=O)N[C@@H](CCC(=O)O)C(=O)N[C@@H](CC1CCCCC1)C(N)=O` [Compound 14]: on hMcl-1 [2], the “CSP1 (Table S3)” value was “+ (0.01 ppm < CSP < 0.05 ppm)”.

`COc1cc(C)c(C(C)C)cc1S(=O)(=O)N[C@H](CC(=O)O)C(=O)N[C@@H](CC1CCCCC1)C(N)=O` [Compound 12, (R)-4-(((S)-1-Amino-3-cyclohexyl-1-oxopropan-2-yl)amino)-3-((5-isopropyl-2-methoxy-4-methylphenyl)sulfonamido)-4-oxobutanoic Acid]: at hMcl-1 [1] (setting [4]), the Kd is around 450 µM. Further, on hMcl-1 [2] (1D 1H NMR, hMcl-1 20 μM), the “dissociation constant estimated by NMR titration” value is “triple-digit micromolar”. The “CSP1 (Table S3)” value at hMcl-1 [2] (listed as Compound (12)) is on record as “++ (0.05 ppm < CSP < 0.1 ppm)”.

Regarding `COc1cc(C)c(C(C)C)cc1S(=O)(=O)N[C@H](CC(=O)O)C(=O)N[C@@H](CC1CCCCC1)C(=O)N[C@H](Cc1c[nH]c2ccccc12)C(N)=O` [Compound 21, (R)-4-(((S)-1-(((R)-1-Amino-3-(1H-indol-3-yl)-1-oxopropan-2-yl)amino)-3-cyclohexyl-1-oxopropan-2-yl)amino)-3-((5-isopropyl-2-methoxy-4-methylphenyl)sulfonamido)-4-oxobutanoic Acid], the “CSP in the 1D-1H-aliphatic region of hMcl-1, comparison among P4 compounds” value at hMcl-1 [2] (20 μM hMcl-1, compound 100 μM) is on record as “bigger CSP”. Further, the Kd on hMcl-1 [2] (1D 1H NMR, hMcl-1 20 μM, read-out: dissociation constant estimated by NMR titration) was around 30000 nM. The “CSP1 (Table S4)” value at hMcl-1 [2] is listed as “+++ (0.1 ppm < CSP < 0.13 ppm)”.

Values taken from article PMC10388297, “Mixture-Based Screening of Focused Combinatorial Libraries by NMR: Application to the Antiapoptotic Protein hMcl-1” (Journal of Medicinal Chemistry, 2023).
